“Also recorded” adds a separate entry of the source. Like-named read-outs stand apart in the source and are kept apart here.
How the values were obtained:
[1] = test system: male rats of the Wistar-100 line; settings: rat, in vivo
[2] = test system: male rats of the Wistar-100 line; settings: rat, in vivo; remark: listed apart in the source
[3] = test system: adult volunteers; settings: human, in vivo
[4] = test system: male rats of the Wistar-100 line; settings: rat, in vivo; remark: listed apart in the source

SMILES: O=S(=O)([O-])CC(S)CS.[Na+] (stereo not shown) [Unithiol, 2,3-Dimercaptopropane-sulfonate Na]
- biochemical parameters of toxic action of ethanol on liver tissue (lipid peroxides, triglycerides, ALT, AST) [1]: oral administration of Unithiol yields essentially better values
- Alanine aminotransferase (ALT) activity in liver homogenates [2]: twice lower
- activity of enzymes characterizing damage of hepatocyte membranes (ALT, AST) [2]: reliably lower than in the control group
- concentration of end products of lipid peroxidation (TBA-positive compounds) in blood plasma [2]: reliably differing from an analogous group without use of Unithiol toward; lowering
- mean content of vitamin E and A in blood plasma [2]: on the level of values in the control group
- content of the main endogenous antioxidants (vitamins E, A, SH-groups) ([2]; po): preserved on the level close to the values in the control group
- biochemical values (MDA, vitamins E and A, SH-groups, ALT, AST, triglycerides) [3]: did not lead to worsening of the biochemical values; also recorded: restoration of the initial (basic) level of the biochemical values
- time after intake at which the subjective perception of withdrawal is removed [3]: 8 to 10 min
- concentration of end products of lipid peroxidation (TBA-positive compounds) in blood plasma [4]: reliably differing from an analogous group without use of Unithiol toward; lowering
- content of the main endogenous antioxidants (vitamins E, A, SH-groups) ([4]; po): preserved on the level close to the values in the control group

Source: patent US20060148898A1 (priority 2003, published 2006)
